This is an account of results in patent publication US10947252B2, “Inhibitors of KEAP1-Nrf2 protein-protein interaction” (Janssen Pharmaceutica NV, priority 2018, dated 2021).

Bounds are passed on as bounds.

For experiment [1], the system named is Glo-Response ARE-luc2P HEK293 cell line. Description: ARE luciferase reporter cell-based assay.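 Also: luciferase signal tracks Nrf2 activation of the ARE once compounds disrupt KEAP1-Nrf2 binding, read with One-Glo reagent, DMSO serving as low control.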 Conditions: average of results obtained.
Experiment [2] has as its target Kelch domain of human KEAP1 (321-624 aa) (Homo sapiens (Human), UniProt Q14145). The experiment can be described thus: KEAP1 KELCH ThermoFluor binding assay.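 Also: Ligand-induced melting temperature shift of E. coli-expressed KEAP1 Kelch protein, Kd estimated from concentration-response curves of ΔTm.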 Conditions: KEAP Kelch […], 1,8-ANS, pH 7.0, average of results obtained, read-out: Tf Kd.

Kelch domain of human KEAP1 (321-624 aa), sequence (Q14145 321-624): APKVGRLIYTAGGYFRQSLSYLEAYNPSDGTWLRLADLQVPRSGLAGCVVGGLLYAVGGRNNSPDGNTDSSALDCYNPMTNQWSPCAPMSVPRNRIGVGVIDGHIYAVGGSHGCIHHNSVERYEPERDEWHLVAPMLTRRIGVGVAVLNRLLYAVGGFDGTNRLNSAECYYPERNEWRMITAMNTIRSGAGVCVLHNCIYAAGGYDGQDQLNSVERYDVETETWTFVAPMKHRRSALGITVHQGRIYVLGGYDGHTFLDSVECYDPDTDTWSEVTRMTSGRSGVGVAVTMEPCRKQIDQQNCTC

Regarding `Cc1ccc([C@H](c2ccn3c(C4CC4)nnc3c2C)C(C)(C)C(=O)O)cc1CN1CC2(CC2)Oc2nc(OCCN3CCCC3)c(C)cc2S1(=O)=O` (single isomer, unassigned) [Example 664, (*R)-3-(3-Cyclopropyl-8-methyl-[1,2,4]triazolo[4,3-a]pyridin-7-yl)-2,2-dimethyl-3-(4-methyl-3-((8′-methyl-1′,1′-dioxido-7′-(2-(pyrrolidin-1-yl)ethoxy)spiro[cyclopropane-1,4′-pyrido[2,3-b][1,4,5]oxathiazepin]-2′(3′H)-yl)methyl)phenyl)propanoic Acid], the EC50 in experiment [1] (Homo sapiens, HEK293, 24 h) is > 20000 nM. For the same molecule, the Kd in experiment [2] worked out at 1840 nM.
The molecule `Cc1ccc([C@@H](CC(=O)O)c2ccn3c(C(F)(F)F)nnc3c2C)cc1CN1C[C@@H]2CCN2c2ncccc2S1(=O)=O` (single isomer, unassigned) [Example 293, (*R)-3-(3-(((*S)-5,5-Dioxido-7,7a, 8,9-tetrahydro-6H-azeto[2,1-d]pyrido[2,3-f][1,2,5]thiadiazepin-6-yl)methyl)-4-methylphenyl)-3-(8-methyl-3-(trifluoromethyl)-[1,2,4]triazolo[4,3-a]pyridin-7-yl)propanoic Acid] gave an EC50 in experiment [1] (Homo sapiens, HEK293, 24 h) of 899 nM. For the same molecule, in experiment [2], the Kd turned out to be 2.55 nM.
The like results for `Cc1ccc(C(CC(=O)O)c2ccc3c(nnn3C3CC3)c2C)cc1CN1C[C@@H]2CCCCN2c2ncccc2S1(=O)=O` (single isomer, unassigned) [Example 399, (*R)-3-(1-Cyclopropyl-4-methyl-1H-benzo[d][1,2,3]triazol-5-yl)-3-(3-(((*S)-5,5-dioxido-7,7a,8,9,10,11-hexahydro-6H-dipyrido[2,1-d:2′,3′-][1,2,5]thiadiazepin-6-yl)methyl)-4-methylphenyl)propanoic Acid] were, in that order, 92.9 nM and < 1 nM.
In experiment [1] (Homo sapiens, HEK293, 24 h), `Cc1ccc(C(CC(=O)O)c2cc(OC(F)F)c3c(c2)nnn3C)cc1CN1C[C@H]2CCCCN2c2ncccc2S1(=O)=O` (stereo in doubt) [Example 1, 3-(7-(Difluoromethoxy)-1-methyl-1H-benzo[d][1,2,3]triazol-5-yl)-3-(3-(((*R)-5,5-dioxido-7,7a,8,9,10,11-hexahydro-6H-dipyrido[2,1-d:2′,3′-f][1,2,5]thiadiazepin-6-yl)methyl)-4-methylphenyl)propanoic acid] had an EC50 of 35 nM. The Kd in experiment [2] was 0.042 nM.
The like results for `Cc1cnc2c(c1)S(=O)(=O)N(Cc1cc([C@H](c3ccc4c(nnn4C4CC4)c3C)C(C)(C)C(=O)O)cnc1C)CC1(CCOCC1)O2` (single isomer, unassigned) [Example 228, (*S)-3-(1-Cyclopropyl-4-methyl-1H-benzo[d][1,2,3]triazol-5-yl)-2,2-dimethyl-3-(6-methyl-5-((8′-methyl-1′,1′-dioxido-2,3,5,6-tetrahydrospiro[pyran-4,4′-pyrido[2,3-b][1,4,5]oxathiazepin]-2′(3′H)-yl)methyl)pyridin-3-yl)propanoic Acid] were, in that order, 10 nM and < 1 nM.
`Cc1ccc([C@@H](CC(=O)O)c2ccc3c(nnn3CC3CC3)c2C(F)F)cc1CN1C[C@H]2CCCCN2c2ncccc2S1(=O)=O` (single isomer, unassigned) [Example 173, (*R)-3-(1-(Cyclopropylmethyl)-4-(difluoromethyl)-1H-benzo[d][1,2,3]triazol-5-yl)-3-(3-(((R)-5,5-dioxido-7,7a,8,9,10,11-hexahydro-6H-dipyrido[2,1-d:2′,3′-f][1,2,5]thiadiazepin-6-yl)methyl)-4-methylphenyl)propanoic Acid] came in with an EC50 in experiment [1] (24 hours) of 540 nM. In experiment [2], the Kd was determined as 4 nM.
Take `Cc1cnc2c(c1)S(=O)(=O)N(Cc1cc([C@H](CC(=O)O)c3ccn4c(C(F)(F)F)nnc4c3C)cnc1C)CC1(CC1)O2` (single isomer, unassigned) [Example 565, (*R)-3-(8-Methyl-3-(trifluoromethyl)-[1,2,4]triazolo[4,3-a]pyridin-7-yl)-3-(6-methyl-5-((8′-methyl-1′,1′-dioxidospiro[cyclopropane-1,4′-pyrido[2,3-b][1,4,5]oxathiazepin]-2′(3′H)-yl)methyl)pyridin-3-yl)propanoic Acid]: in experiment [1] (Homo sapiens, HEK293, 24 h), the EC50 was > 20000 nM. For the same molecule, the Kd in experiment [2] was 59.4 nM.
As for `Cc1ncc([C@@H](c2ccn3c(C(F)(F)F)nnc3c2C)C(C)(C)C(=O)O)cc1CN1CC2(CCOCC2)Oc2ncccc2S1(=O)=O` (single isomer, unassigned) [Example 571, (*R)-3-(5-((1′,1′-dioxido-2,3,5,6-tetrahydrospiro[pyran-4,4′-pyrido[2,3-b][1,4,5]oxathiazepin]-2′(3′H)-yl)methyl)-6-methylpyridin-3-yl)-2,2-dimethyl-3-(8-methyl-3-(trifluoromethyl)-[1,2,4]triazolo[4,3-a]pyridin-7-yl)propanoic Acid], in experiment [1] (Homo sapiens, HEK293, 24 h), the EC50 was > 20000 nM. Besides, the Kd in experiment [2] was 5850 nM.
The like results for `Cc1ccc([C@@H](CC(=O)O)c2ccn3c(C(F)(F)F)nnc3c2C)cc1CN1CC2(COC2)Oc2ncccc2S1(=O)=O` (single isomer, unassigned) [Example 261, (*R)-3-(3-((1′,1′-Dioxidospiro[oxetane-3,4′-pyrido[2,3-b][1,4,5]oxathiazepin]-2′(3′H)-yl)methyl)-4-methylphenyl)-3-(8-methyl-3-(trifluoromethyl)-[1,2,4]triazolo[4,3-a]pyridin-7-yl)propanoic Acid] were, in that order, 1390 nM and < 1 nM.
The molecule `CCn1nnc2c(C)c([C@@H](c3ccc(C)c(CN4CC5(CCOCC5)Oc5ncccc5S4(=O)=O)c3)C(C)(C)C(=O)O)ccc21` (single isomer, unassigned) [Example 16, (*R)-3-(3-((1′,1′-Dioxido-2,3,5,6-tetrahydrospiro[pyran-4,4′-pyrido[2,3-b][1,4,5]oxathiazepin]-2′(3′H)-yl)methyl)-4-methylphenyl)-3-(1-ethyl-4-methyl-1H-benzo[d][1,2,3]triazol-5-yl)-2,2-dimethylpropanoic Acid] returned an EC50 in experiment [1] (Homo sapiens, HEK293, 24 h) of 233 nM. Further, in experiment [2], the Kd stood at 838 nM.
The like results for `Cc1ccc([C@@H](CC(=O)O)c2cc(OC3CC3)c3c(c2)nnn3C)cc1CN1C[C@H]2CCCCN2c2ncccc2S1(=O)=O` (single isomer, unassigned) [Example 404, (*R)-3-(7-Cyclopropoxy-1-methyl-1H-benzo[d][1,2,3]triazol-5-yl)-3-(3-(((*R)-5,5-dioxido-7,7a,8,9,10,11-hexahydro-6H-dipyrido[2,1-d:2′,3′-f][1,2,5]thiadiazepin-6-yl)methyl)-4-methylphenyl)propanoic Acid] were, in that order, 19.6 nM and < 1 nM.
The like results for `CCn1nnc2c(C)c([C@H](CC(=O)O)c3ccc(C)c(CN4CC5(CC5)Oc5ncccc5S4(=O)=O)n3)ccc21` (single isomer, unassigned) [Example 244, (*S)-3-(6-((1′,1′-Dioxidospiro[cyclopropane-1,4′-pyrido[2,3-b][1,4,5]oxathiazepin]-2′(3′H)-yl)methyl)-5-methylpyridin-2-yl)-3-(1-ethyl-4-methyl-1H-benzo[d][1,2,3]triazol-5-yl)propanoic Acid] were, in that order, 35 nM and < 1 nM.
`Cc1ccc(C(CC(=O)O)c2ccn3c(C(F)F)nnc3c2C)cc1CN1CC2(CC2)Oc2ncc(Cl)cc2S1(=O)=O` (stereo not shown) [Example 529, 3-(3-((8′-Chloro-1′,1′-dioxidospiro[cyclopropane-1,4′-pyrido[2,3-b][1,4,5]oxathiazepin]-2′(3′H)-yl)methyl)-4-methylphenyl)-3-(3-(difluoromethyl)-8-methyl-[1,2,4]triazolo[4,3-a]pyridin-7-yl)propanoic Acid] showed an EC50 in experiment [1] (Homo sapiens, HEK293, 24 h) of 29.1 nM. For the same molecule, the Kd in experiment [2] was < 1 nM.
With `Cc1ccc([C@H](CC(=O)O)c2ccn3c(C(F)(F)F)nnc3c2C)cc1CN1CC2(CC2)Oc2nc(O)ccc2S1(=O)=O` (single isomer, unassigned) [Example 103, (*S)-3-(3-((7′-Hydroxy-1′,1′-dioxidospiro[cyclopropane-1,4′-pyrido[2,3,-b][1,4,5]oxathiazepin]-2′(3′H)-yl)methyl)-4-methylphenyl)-3-(8-methyl-3-(trifluoromethyl)-[1,2,4]triazolo[4,3-a]pyridine-7-yl)propanoic Acid], it took 9130 nM to reach a half-maximal effect in experiment [1] (Homo sapiens, HEK293, 24 h) (EC50). In addition, the Kd in experiment [2] is 1.6 nM.
In experiment [1] (Homo sapiens, HEK293, 24 h), `CCc1nnc2c(C)c([C@@H](CC(=O)O)c3ccc(C)c(CN4C[C@H]5CCCN5c5ccccc5S4(=O)=O)c3)ccn12` (single isomer, unassigned) [Example 279, (*S)-3-(3-(((R)-5,5-Dioxido-7a,8,9,10-tetrahydrobenzo[f]pyrrolo[2,1-d][1,2,5]thiadiazepin-6(7H)-yl)methyl)-4-methylphenyl)-3-(3-ethyl-8-methyl-[1,2,4]triazolo[4,3-a]pyridin-7-yl)propanoic Acid] displayed an EC50 of 235 nM. Further, the Kd in experiment [2] was < 1 nM.
Molecule `Cc1ccc([C@@H](c2ccn3c(C(F)F)nnc3c2C)C(C)(C)C(=O)O)cc1CN1CC2(CCOCC2)Oc2ncccc2S1(=O)=O` (single isomer, unassigned) [Example 53, (*S)-3-(3-(Difluoromethyl)-8-methyl-[1,2,4]triazolo[4,3-a]pyridin-7-yl)-3-(3-((1′,1′-dioxido-2,3,5,6-tetrahydrospiro[pyran-4,4′-pyrido[2,3-b][1,4,5]oxathiazepin]-2′(3′H)-yl)methyl)-4-methylphenyl)-2,2-dimethylpropanoic Acid] gave an EC50 in experiment [1] (Homo sapiens, HEK293, 24 h) of 3.9 nM. For the same molecule, the Kd in experiment [2] was < 1 nM.
In experiment [1] (Homo sapiens, HEK293, 24 h), `Cc1cnc2c(c1)S(=O)(=O)N(Cc1cc([C@H](CC(=O)O)c3ccn4c(C(F)(F)F)nnc4c3C)ccc1C)CC1(CCOCC1)O2` (single isomer, unassigned) [Example 208, (*S)-3-(4-Methyl-3-((8′-methyl-1′,1′-dioxido-2,3,5,6-tetrahydrospiro[pyran-4,4′-pyrido[2,3-b][[,4,5]oxathiazepin]-2′(3′H)-yl)methyl)phenyl)-3-(8-methyl-3-(trifluoromethyl)-[1,2,4]triazolo[4,3-a]pyridin-7-yl)propanoic Acid] gave an EC50 of 19 nM. In experiment [2], the Kd is < 1 nM.
